Experimental data from patent US10597388B2, “Pyridazinone herbicides” (FMC CORPORATION, priority 2014, dated 2020).

Assays:
Format in all cases: in vivo
corn (Zea mays) [1] = experiment: Test A greenhouse herbicide test, pre- and postemergence; details: Postemergence
In short: (§1)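 Seeds in loam–sand blend received a preemergence directed soil spray; plants at 2–10 cm, one- to two-leaf stage, received postemergence sprays. Compounds in a non-phytotoxic solvent with surfactant. After about 10 d in a greenhouse, injury rated visually versus untreated controls on a 0–100 scale (100 = complete control).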

[2] = test system: foxtail, giant (giant foxtail, Setaria faberii); experiment: as above
In short: as §1

[3] = test system: ryegrass, Italian (Italian ryegrass, Lolium multiflorum); experiment: as above
In short: as §1

[4] = test system: wheat (Triticum aestivum); experiment: as above; details: Postemergence
In short: as §1

[5] = test system: blackgrass (Alopecurus myosuroides); experiment: Test C greenhouse herbicide test, pre- and postemergence
In short: (§2)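 Pre- and postemergence greenhouse screen; values are visual control ratings, 0 meaning no effect and 100 complete kill, assigned relative to untreated plants after 13 to 15 d.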

corn (Zea mays) [6] = experiment: as above
In short: as §2

[7] = test system: nutsedge, yellow (yellow nutsedge, Cyperus esculentus); experiment: as above
In short: as §2

[8] = test system: pigweed (Amaranthus retroflexus); experiment: as above
In short: as §2

soybean (Glycine max) = experiment: as above
In short: as §2

[9] = test system: velvetleaf (Abutilon theophrasti); experiment: as above
In short: as §2

[10] = test system: waterhemp (common waterhemp, Amaranthus rudis); experiment: as above
In short: as §2

[11] = 125 g ai/ha, 0 to 100 scale where 0 is no effect and 100 is complete control
[12] = 500 g ai/ha, visual rating after approx. 10 d, 0 to 100 scale (0 no effect, 100 complete control)
[13] = Postemergence, 125 g ai/ha, 0 to 100 scale where 0 is no effect and 100 is complete control
[14] = Postemergence, 500 g ai/ha, visual rating after approx. 10 d, 0 to 100 scale (0 no effect, 100 complete control)
[15] = Preemergence, 125 g ai/ha, 0 to 100 scale where 0 is no effect and 100 is complete control
[16] = Preemergence, 500 g ai/ha, 0 to 100 scale where 0 is no effect and 100 is complete control
[17] = Postemergence, 31 g ai/ha, scale 0 to 100 (0 no effect, 100 complete control)
[18] = Postemergence, 62 g ai/ha, 0 to 100 scale (0 no effect, 100 complete control)
[19] = Postemergence, 125 g ai/ha, scale 0 to 100, 0 is no effect, 100 is complete control
[20] = Postemergence, 250 g ai/ha, scale 0 to 100, 0 no effect, 100 complete control, 13 to 15 d
[21] = Preemergence, 31 g ai/ha, scale 0 to 100, 0 is no effect, 100 is complete control
[22] = Preemergence, 62 g ai/ha, scale 0 to 100, 0 is no effect, 100 is complete control
[23] = Preemergence, 125 g ai/ha, scale 0 to 100, 0 is no effect, 100 is complete control
[24] = Preemergence, 250 g ai/ha, scale 0 to 100, 0 no effect, 100 complete control
[25] = postemergence, 62 g ai/ha, scale 0 to 100, 0 no effect, 100 complete control
[26] = 500 g ai/ha, 0 to 100 scale, 0 is no effect, 100 is complete control
[27] = Postemergence, 500 g ai/ha, 0 to 100 scale, 0 is no effect, 100 is complete control
[28] = Preemergence, 500 g ai/ha, 0 to 100 scale, 0 no effect, 100 complete control
[29] = Postemergence, 31 g ai/ha, 0 to 100 scale (0 no effect, 100 complete control)

SMILES: Cc1nn(C)c(=O)c(-c2cccc3ccc(Br)cc23)c1O [Compound 126]
- Plant response rating, Corn (corn (Zea mays) [1]; [11]): 0
- Plant response rating, Corn (corn (Zea mays) [1]; [12]): 20
- Plant response rating, Foxtail, Giant [2, 13]: 20
- Plant response rating, Foxtail, Giant [2, 14]: 60
- Foxtail, Giant plant response rating [2, 15]: 10
- Plant response rating, Foxtail, Giant [2, 16]: 70
- Plant response rating, Ryegrass, Italian [3, 13]: 90
- Plant response rating, Ryegrass, Italian [3, 14]: 100
- Ryegrass, Italian plant response rating [3, 15]: 90
- Plant response rating, Ryegrass, Italian [3, 16]: 100
- Plant response rating, Wheat [4, 11]: 0
- Plant response rating, Wheat [4, 12]: 20
- Plant response rating, Blackgrass [5, 17]: 5
- Blackgrass plant response rating [5, 18]: 5
- Plant response rating, Blackgrass [5, 19]: 10
- Plant response rating, Blackgrass [5, 20]: 40
- Plant response rating, Corn (corn (Zea mays) [6]; [17]): 10
- Corn plant response rating (corn (Zea mays) [6]; [18]): 10
- Plant response rating, Corn (corn (Zea mays) [6]; [19]): 20
- Plant response rating, Corn (corn (Zea mays) [6]; [20]): 25
- Plant response rating, Nutsedge, Yellow [7, 17]: 35
- Nutsedge, Yellow plant response rating [7, 18]: 60
- Plant response rating, Nutsedge, Yellow [7, 19]: 70
- Plant response rating, Nutsedge, Yellow [7, 20]: 85
- Plant response rating, Pigweed [8, 17]: 85
- Pigweed plant response rating [8, 18]: 90
- Plant response rating, Pigweed [8, 19]: 95
- Plant response rating, Pigweed [8, 20]: 95
- Plant response rating, Soybean (soybean (Glycine max); [17]): 5
- Soybean plant response rating (soybean (Glycine max); [18]): 10
- Plant response rating, Soybean (soybean (Glycine max); [19]): 20
- Plant response rating, Soybean (soybean (Glycine max); [20]): 35
- Plant response rating, Velvetleaf [9, 17]: 30
- Velvetleaf plant response rating [9, 18]: 85
- Plant response rating, Velvetleaf [9, 19]: 98
- Plant response rating, Velvetleaf [9, 20]: 95
- Plant response rating, Waterhemp [10, 17]: 75
- Waterhemp plant response rating [10, 18]: 90
- Plant response rating, Waterhemp [10, 19]: 95
- Plant response rating, Waterhemp [10, 20]: 100

SMILES: CCC(=O)Oc1c(C)nn(C)c(=O)c1-c1ccc(F)c2ccccc12 [Compound 113]
- Plant response rating, Corn (corn (Zea mays) [1]; [11]): 20
- Plant response rating, Corn (corn (Zea mays) [1]; [12]): 70
- Plant response rating, Foxtail, Giant [2, 13]: 40
- Plant response rating, Foxtail, Giant [2, 14]: 90
- Foxtail, Giant plant response rating [2, 15]: 70
- Plant response rating, Foxtail, Giant [2, 16]: 100
- Plant response rating, Ryegrass, Italian [3, 13]: 100
- Plant response rating, Ryegrass, Italian [3, 14]: 100
- Ryegrass, Italian plant response rating [3, 15]: 100
- Plant response rating, Ryegrass, Italian [3, 16]: 100
- Plant response rating, Wheat [4, 11]: 30
- Plant response rating, Wheat [4, 12]: 70
- Plant response rating, Blackgrass [5, 17]: 15
- Plant response rating, Blackgrass [5, 19]: 45
- Plant response rating, Blackgrass [5, 20]: 60
- Plant response rating, Blackgrass [5, 21]: 10
- Plant response rating, Blackgrass [5, 22]: 50
- Plant response rating, Blackgrass [5, 23]: 55
- Blackgrass plant response rating [5, 24]: 60
- Blackgrass plant response rating [5, 25]: 25
- Plant response rating, Corn (corn (Zea mays) [6]; [17]): 5
- Plant response rating, Corn (corn (Zea mays) [6]; [19]): 10
- Plant response rating, Corn (corn (Zea mays) [6]; [20]): 15
- Plant response rating, Corn (corn (Zea mays) [6]; [21]): 0
- Plant response rating, Corn (corn (Zea mays) [6]; [22]): 0
- Plant response rating, Corn (corn (Zea mays) [6]; [23]): 20
- Corn plant response rating (corn (Zea mays) [6]; [24]): 35
- Corn plant response rating (corn (Zea mays) [6]; [25]): 10
- Plant response rating, Nutsedge, Yellow [7, 17]: 70
- Plant response rating, Nutsedge, Yellow [7, 19]: 85
- Plant response rating, Nutsedge, Yellow [7, 20]: 95
- Plant response rating, Nutsedge, Yellow [7, 21]: 55
- Plant response rating, Nutsedge, Yellow [7, 22]: 70
- Plant response rating, Nutsedge, Yellow [7, 23]: 85
- Nutsedge, Yellow plant response rating [7, 24]: 85
- Plant response rating, Pigweed [8, 17]: 65
- Plant response rating, Pigweed [8, 19]: 95
- Plant response rating, Pigweed [8, 20]: 98
- Plant response rating, Pigweed [8, 21]: 70
- Plant response rating, Pigweed [8, 22]: 75
- Plant response rating, Pigweed [8, 23]: 100
- Pigweed plant response rating [8, 24]: 100
- Plant response rating, Soybean (soybean (Glycine max); [17]): 15
- Plant response rating, Soybean (soybean (Glycine max); [19]): 40
- Plant response rating, Soybean (soybean (Glycine max); [20]): 55
- Plant response rating, Soybean (soybean (Glycine max); [21]): 0
- Plant response rating, Soybean (soybean (Glycine max); [22]): 45
- Plant response rating, Soybean (soybean (Glycine max); [23]): 65
- Soybean plant response rating (soybean (Glycine max); [24]): 80
- Plant response rating, Velvetleaf [9, 17]: 70
- Plant response rating, Velvetleaf [9, 19]: 90
- Plant response rating, Velvetleaf [9, 20]: 98
- Plant response rating, Velvetleaf [9, 21]: 60
- Plant response rating, Velvetleaf [9, 22]: 95
- Plant response rating, Velvetleaf [9, 23]: 98
- Velvetleaf plant response rating [9, 24]: 100
- Plant response rating, Waterhemp [10, 17]: 85
- Plant response rating, Waterhemp [10, 19]: 90
- Plant response rating, Waterhemp [10, 20]: 100
- Plant response rating, Waterhemp [10, 21]: 85
- Plant response rating, Waterhemp [10, 22]: 100
- Plant response rating, Waterhemp [10, 23]: 98
- Waterhemp plant response rating [10, 24]: 98

SMILES: Cc1ccc2sc(C)c(-c3c(OC(=O)C(C)(C)C)c(C)nn(C)c3=O)c2c1 [Compound 26]
- Plant response rating, Corn (corn (Zea mays) [1]; 125 g ai/ha, visual rating after approx. 10 d, 0 to 100 scale (0 no effect, 100 complete control)): 0
- Corn plant response rating (corn (Zea mays) [1]; [26]): 0
- Plant response rating, Foxtail, Giant ([2]; Postemergence, 125 g ai/ha, visual rating after approx. 10 d, 0 to 100 scale (0 no effect, 100 complete control)): 10
- Foxtail, Giant plant response rating [2, 27]: 60
- Foxtail, Giant plant response rating [2, 15]: 30
- Plant response rating, Foxtail, Giant [2, 28]: 50
- Plant response rating, Ryegrass, Italian [3, 13]: 60
- Ryegrass, Italian plant response rating [3, 27]: 90
- Ryegrass, Italian plant response rating [3, 15]: 30
- Plant response rating, Ryegrass, Italian [3, 28]: 70
- Plant response rating, Wheat [4, 11]: 0
- Wheat plant response rating [4, 26]: 0
- Blackgrass plant response rating [5, 29]: 50
- Plant response rating, Blackgrass [5, 19]: 60
- Plant response rating, Blackgrass [5, 20]: 75
- Blackgrass plant response rating [5, 25]: 55
- Corn plant response rating (corn (Zea mays) [6]; [29]): 0
- Plant response rating, Corn (corn (Zea mays) [6]; [19]): 5
- Plant response rating, Corn (corn (Zea mays) [6]; [20]): 5
- Corn plant response rating (corn (Zea mays) [6]; [25]): 10
- Nutsedge, Yellow plant response rating [7, 29]: 5
- Plant response rating, Nutsedge, Yellow [7, 19]: 20
- Plant response rating, Nutsedge, Yellow [7, 20]: 25
- Nutsedge, Yellow plant response rating [7, 25]: 10
- Pigweed plant response rating [8, 29]: 75
- Plant response rating, Pigweed [8, 19]: 98
- Plant response rating, Pigweed [8, 20]: 95
- Pigweed plant response rating [8, 25]: 85
- Soybean plant response rating (soybean (Glycine max); [29]): 5
- Plant response rating, Soybean (soybean (Glycine max); [19]): 10
- Plant response rating, Soybean (soybean (Glycine max); [20]): 10
- Soybean plant response rating (soybean (Glycine max); [25]): 5
- Velvetleaf plant response rating [9, 29]: 5
- Plant response rating, Velvetleaf [9, 19]: 60
- Plant response rating, Velvetleaf [9, 20]: 70
- Velvetleaf plant response rating [9, 25]: 30
- Waterhemp plant response rating [10, 29]: 75
- Plant response rating, Waterhemp [10, 19]: 85
- Plant response rating, Waterhemp [10, 20]: 95
- Waterhemp plant response rating [10, 25]: 85
